Assay results as given in ChEMBL document CHEMBL4138123, “Design, synthesis and biological evaluation of novel pyrazolochalcones as potential modulators of PI3K/Akt/mTOR pathway and inducers of apoptosis in breast cancer cells” (Eur J Med Chem, 2017).

Experiments:
Format in all cases: functional
LOX IMVI [1] = test: Cytotoxicity against human LOXIMVI cells assessed as cell growth at 1 uM after 48 hrs by sulforhodamine B assay relative to control; conditions: read-out: Activity
SNB-75 [2] = test: Cytotoxicity against human SNB75 cells assessed as cell growth at 100 uM after 48 hrs by sulforhodamine B assay relative to control; conditions: SNB-75, 48 h, read-out: Activity
CAKI-1 [3] = test: Cytotoxicity against human Caki1 cells assessed as growth inhibition after 48 hrs by sulforhodamine B assay; conditions: CAKI-1, 48 h
HOP-92 [4] = test: Cytotoxicity against human HOP92 cells assessed as cell growth at 100 uM after 48 hrs by sulforhodamine B assay relative to control; conditions: HOP-92, 48 h, read-out: Activity
SNB-75 [5] = test: Cytotoxicity against human SNB75 cells assessed as cell growth at 0.01 uM after 48 hrs by sulforhodamine B assay relative to control; conditions: SNB-75, 48 h, read-out: Activity
LOX IMVI [6] = test: Cytotoxicity against human LOXIMVI cells assessed as cell growth at 100 uM after 48 hrs by sulforhodamine B assay relative to control; conditions: read-out: Activity
SNB-75 [7] = test: Cytotoxicity against human SNB75 cells assessed as cell growth at 10 uM after 48 hrs by sulforhodamine B assay relative to control; conditions: SNB-75, 48 h, read-out: Activity
LOX IMVI [8] = test: Cytotoxicity against human LOXIMVI cells assessed as cell growth at 0.01 uM after 48 hrs by sulforhodamine B assay relative to control; conditions: read-out: Activity
SF-295 [9] = test: Cytotoxicity against human SF295 cells assessed as cell growth at 10 uM after 48 hrs by sulforhodamine B assay relative to control; conditions: SF-295, 48 h, read-out: Activity
SNB-75 [10] = test: Cytotoxicity against human SNB75 cells assessed as cell growth at 1 uM after 48 hrs by sulforhodamine B assay relative to control; conditions: SNB-75, 48 h, read-out: Activity
SF-295 [11] = test: Cytotoxicity against human SF295 cells assessed as cell growth at 100 uM after 48 hrs by sulforhodamine B assay relative to control; conditions: SF-295, 48 h, read-out: Activity
SK-MEL-2 [12] = test: Cytotoxicity against human SK-MEL-2 cells assessed as cell growth at 1 uM after 48 hrs by sulforhodamine B assay relative to control; conditions: SK-MEL-2, 48 h, read-out: Activity
HOP-92 [13] = test: Cytotoxicity against human HOP92 cells assessed as cell growth at 0.1 uM after 48 hrs by sulforhodamine B assay relative to control; conditions: HOP-92, 48 h, read-out: Activity
SK-MEL-2 [14] = test: Cytotoxicity against human SK-MEL-2 cells assessed as cell growth at 0.01 uM after 48 hrs by sulforhodamine B assay relative to control; conditions: SK-MEL-2, 48 h, read-out: Activity
CAKI-1 [15] = test: Cytotoxicity against human Caki1 cells assessed as cell growth at 100 uM after 48 hrs by sulforhodamine B assay relative to control; conditions: CAKI-1, 48 h, read-out: Activity
LOX IMVI [16] = test: Cytotoxicity against human LOXIMVI cells assessed as cell growth at 0.1 uM after 48 hrs by sulforhodamine B assay relative to control; conditions: read-out: Activity
SK-MEL-2 [17] = test: Cytotoxicity against human SK-MEL-2 cells assessed as cell growth at 10 uM after 48 hrs by sulforhodamine B assay relative to control; conditions: SK-MEL-2, 48 h, read-out: Activity
SNB-75 [18] = test: Cytotoxicity against human SNB75 cells assessed as growth inhibition after 48 hrs by sulforhodamine B assay; conditions: SNB-75, 48 h
SF-295 [19] = test: Cytotoxicity against human SF295 cells assessed as cell growth at 0.1 uM after 48 hrs by sulforhodamine B assay relative to control; conditions: SF-295, 48 h, read-out: Activity
SK-MEL-2 [20] = test: Cytotoxicity against human SK-MEL-2 cells assessed as cell growth at 0.1 uM after 48 hrs by sulforhodamine B assay relative to control; conditions: SK-MEL-2, 48 h, read-out: Activity
SNB-75 [21] = test: Cytotoxicity against human SNB75 cells assessed as cell growth at 0.1 uM after 48 hrs by sulforhodamine B assay relative to control; conditions: SNB-75, 48 h, read-out: Activity
SF-295 [22] = test: Cytotoxicity against human SF295 cells assessed as growth inhibition after 48 hrs by sulforhodamine B assay; conditions: SF-295, 48 h
CAKI-1 [23] = test: Cytotoxicity against human Caki1 cells assessed as cell growth at 0.01 uM after 48 hrs by sulforhodamine B assay relative to control; conditions: CAKI-1, 48 h, read-out: Activity
CAKI-1 [24] = test: Cytotoxicity against human Caki1 cells assessed as cell growth at 1 uM after 48 hrs by sulforhodamine B assay relative to control; conditions: CAKI-1, 48 h, read-out: Activity
CAKI-1 [25] = test: Cytotoxicity against human Caki1 cells assessed as cell growth at 0.1 uM after 48 hrs by sulforhodamine B assay relative to control; conditions: CAKI-1, 48 h, read-out: Activity
HOP-92 [26] = test: Cytotoxicity against human HOP92 cells assessed as cell growth at 1 uM after 48 hrs by sulforhodamine B assay relative to control; conditions: HOP-92, 48 h, read-out: Activity
HOP-92 [27] = test: Cytotoxicity against human HOP92 cells assessed as cell growth at 10 uM after 48 hrs by sulforhodamine B assay relative to control; conditions: HOP-92, 48 h, read-out: Activity
SK-MEL-2 [28] = test: Cytotoxicity against human SK-MEL-2 cells assessed as cell growth at 100 uM after 48 hrs by sulforhodamine B assay relative to control; conditions: SK-MEL-2, 48 h, read-out: Activity
HOP-92 [29] = test: Cytotoxicity against human HOP92 cells assessed as cell growth at 0.01 uM after 48 hrs by sulforhodamine B assay relative to control; conditions: HOP-92, 48 h, read-out: Activity
SF-295 [30] = test: Cytotoxicity against human SF295 cells assessed as cell growth at 1 uM after 48 hrs by sulforhodamine B assay relative to control; conditions: SF-295, 48 h, read-out: Activity
LOX IMVI [31] = test: Cytotoxicity against human LOXIMVI cells assessed as cell growth at 10 uM after 48 hrs by sulforhodamine B assay relative to control; conditions: read-out: Activity
SF-295 [32] = test: Cytotoxicity against human SF295 cells assessed as cell growth at 0.01 uM after 48 hrs by sulforhodamine B assay relative to control; conditions: SF-295, 48 h, read-out: Activity
HOP-92 [33] = test: Cytotoxicity against human HOP92 cells assessed as growth inhibition after 48 hrs by sulforhodamine B assay; conditions: HOP-92, 48 h; for CC50: read-out: LC50 (the source's name)

Compound | growth at 1 µM (LOX IMVI [1]) [%] | growth at 100 µM (SNB-75 [2]) [%] | growth at 100 µM (HOP-92 [4]) [%] | growth at 0.01 µM (SNB-75 [5]) [%] | growth at 100 µM (LOX IMVI [6]) [%] | growth at 10 µM (SNB-75 [7]) [%] | growth at 0.01 µM (LOX IMVI [8]) [%] | growth at 10 µM (SF-295 [9]) [%] | growth at 1 µM (SNB-75 [10]) [%] | growth at 100 µM (SF-295 [11]) [%] | growth at 1 µM (SK-MEL-2 [12]) [%] | growth at 0.1 µM (HOP-92 [13]) [%] | growth at 0.01 µM (SK-MEL-2 [14]) [%] | growth at 0.1 µM (LOX IMVI [16]) [%] | growth at 10 µM (SK-MEL-2 [17]) [%] | TGI (SNB-75 [18]) [µM] | growth at 0.1 µM (SF-295 [19]) [%] | growth at 0.1 µM (SK-MEL-2 [20]) [%] | growth at 0.1 µM (SNB-75 [21]) [%] | TGI (SF-295 [22]) [µM] | further results
COc1ccc(C(=O)/C=C/c2cc(-c3ccc4c(c3)OCO4)n[nH]2)cc1OC | 97 | -100 | -61 | 78 | -78 | -10 | 100 | -27 | 76 | -93 | 107 | 87 | 98 | 99 | 39 | 7.57 | 98 | 95 | 76 | 6.15 | LC50 (CAKI-1 [3]): 9.84 µM; TGI (CAKI-1 [3]): 4.33 µM; growth at 100 µM (CAKI-1 [15]): -65%; LC50 (concentration killing 50% of cells) (SNB-75 [18]): 27.7 µM; LC50 (SF-295 [22]): 22.2 µM; growth at 0.01 µM (CAKI-1 [23]): 93%; growth at 1 µM (CAKI-1 [24]): 89%; growth at 0.1 µM (CAKI-1 [25]): 100%; growth at 1 µM (HOP-92 [26]): 79%; growth at 10 µM (HOP-92 [27]): -8%; growth at 100 µM (SK-MEL-2 [28]): -68%; growth at 0.01 µM (HOP-92 [29]): 85%; growth at 1 µM (SF-295 [30]): 101%; growth at 10 µM (LOX IMVI [31]): -62%; growth at 0.01 µM (SF-295 [32]): 95%; TGI (HOP-92 [33]): 8.11 µM; CC50 (HOP-92 [33]): 62.2 µM
COc1ccc(-c2cc(/C=C/C(=O)c3cc(OC)c(OC)c(OC)c3)[nH]n2)cc1OC | 78 | -82 | -84 | 88 | -69 | -46 | 96 | -46 | 63 | -91 | 97 | 74 | 100 | 94 | -12 | 3.77 | 87 | 95 | 77 | 4.26 | GI50 (SNB-75 [18]): 1310 nM; LC50 (concentration killing 50% of cells) (SNB-75 [18]): 12.7 µM; GI50 (SF-295 [22]): 1670 nM; LC50 (SF-295 [22]): 12.5 µM; growth at 1 µM (HOP-92 [26]): 70%; growth at 10 µM (HOP-92 [27]): -25%; growth at 100 µM (SK-MEL-2 [28]): -92%; growth at 0.01 µM (HOP-92 [29]): 103%; growth at 1 µM (SF-295 [30]): 77%; growth at 10 µM (LOX IMVI [31]): -91%; growth at 0.01 µM (SF-295 [32]): 97%; GI50 (HOP-92 [33]): 1610 nM; TGI (HOP-92 [33]): 5.48 µM; CC50 (HOP-92 [33]): 26.6 µM
COc1ccc(C(=O)/C=C/c2cc(-c3ccc(OC)c(OC)c3)n[nH]2)cc1OC | 68 | -82 | -15 | 82 | -91 | -65 | 100 | -30 | 58 | -57 | 111 | 81 | 110 | 99 | -44 | 2.96 | 90 | 113 | 89 | 5.05 | GI50 (SNB-75 [18]): 1160 nM; GI50 (SF-295 [22]): 1600 nM; growth at 1 µM (HOP-92 [26]): 74%; growth at 10 µM (HOP-92 [27]): -7%; growth at 100 µM (SK-MEL-2 [28]): -58%; growth at 0.01 µM (HOP-92 [29]): 83%; growth at 1 µM (SF-295 [30]): 70%; growth at 10 µM (LOX IMVI [31]): -89%; growth at 0.01 µM (SF-295 [32]): 85%; GI50 (HOP-92 [33]): 1970 nM; TGI (HOP-92 [33]): 8.12 µM; CC50 (HOP-92 [33]): > 100 µM
COc1ccc(-c2cc(/C=C/C(=O)c3ccc(N)cc3)[nH]n2)cc1OC | 96 | -97 | -81 | 81 | -81 | 17 | 100 | 20 | 75 | -91 | 102 | 87 | 103 | 102 | 46 | 14.2 | 90 | 109 | 92 | 15.2 | GI50 (SNB-75 [18]): 2740 nM; LC50 (concentration killing 50% of cells) (SNB-75 [18]): 39 µM; GI50 (SF-295 [22]): 3580 nM; LC50 (SF-295 [22]): 42.9 µM; growth at 1 µM (HOP-92 [26]): 87%; growth at 10 µM (HOP-92 [27]): 77%; growth at 100 µM (SK-MEL-2 [28]): -86%; growth at 0.01 µM (HOP-92 [29]): 86%; growth at 1 µM (SF-295 [30]): 87%; growth at 10 µM (LOX IMVI [31]): -66%; growth at 0.01 µM (SF-295 [32]): 83%; GI50 (HOP-92 [33]): 1490 nM; TGI (HOP-92 [33]): 30.9 µM; CC50 (HOP-92 [33]): 63.9 µM
